According to US9428452B2, “Compounds” (Glaxo Group Limited, priority 2012, dated 2016):

Molecular target: T1, Human RORγ Ligand Binding Domain (RORγ-LBD) (Homo sapiens, UniProt P51449)
T1 construct: His6 with thrombin site) (N); made in house; host or cells: E. coli BL21(DE3), modified pET21a vector
T1 sequence (P51449 263-518): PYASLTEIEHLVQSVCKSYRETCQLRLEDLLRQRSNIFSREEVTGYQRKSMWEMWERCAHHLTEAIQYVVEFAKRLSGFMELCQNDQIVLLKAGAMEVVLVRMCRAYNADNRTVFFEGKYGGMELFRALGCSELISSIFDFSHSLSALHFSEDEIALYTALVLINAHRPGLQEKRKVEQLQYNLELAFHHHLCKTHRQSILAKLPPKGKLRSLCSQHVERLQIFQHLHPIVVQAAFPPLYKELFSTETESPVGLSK
Assay: Dual Fluorescence Energy Transfer (FRET) assay: co-activator SRC1(2) peptide interaction with RORγ-LBD
Type: biochemical
Conditions: RORγ-LBD / SRC1(2) peptide, read-out: mean pIC50 (converted)
From the text: Dual Fluorescence Energy Transfer (FRET) Assay
This assay is based on the knowledge that nuclear receptors interact with cofactors (transcription factors) in a ligand dependent manner. RORγ is a typical nuclear receptor in that it has an AF2 domain in the ligand binding domain (LBD) which interacts with co-activators.
This assay measures ligand-mediated interaction of the co-activator peptide with the purified bacterial-expressed RORγ ligand binding domain (RORγ-LBD) to indirectly assess ligand binding. RORγ has a basal level of interaction with the co-activator SRC1(2) in the absence of ligand, thus, it is possible to find ligands that inhibit or enhance the RORγ/SRC1(2) interaction.
Human RORγ Ligand Binding Domain (RORγ-LBD) was expressed in E. coli strain BL21(DE3) as an amino-terminal polyhistidine tagged fusion protein. DNA encoding this recombinant protein was sub-cloned into a modified pET21a expression vector (Novagen).
Approximately 50 g E. coli cell pellet was resuspended in 300 mL of lysis buffer (30 mM imidazole pH 7.0 and 150 mM NaCl). Cells were lysed by sonication and cell debris was removed by centrifugation for 30 minutes at 20,000 g at 4° C. […] The clarified lysate was loaded onto a column (XK-26) packed with ProBond Nickel Chelating resin (InVitrogen), pre-equilibrated with 30 mM imidazole pH 7.0 and 150 mM NaCl. After washing to baseline absorbance with the equilibration buffer, the column was developed with a gradient from 30 to 500 mM imidazole pH 7.0. Column fractions containing the RORγ-LBD protein were pooled and concentrated to a volume of 5 mLs. The concentrated protein was loaded onto a Superdex 200 column pre-equilibrated with 20 mM Tris-Cl pH 7.2 and 200 mM NaCl. The fractions containing the desired RORγ-LBD protein were pooled together.
Purified RORγ-LBD was buffer exchanged by exhaustive dialysis [3 changes of at least 20 volumes (>8000×)] against PBS [100 mM NaPhosphate, pH 8 and 150 mM NaCl]. […] The modified RORγ-LBD was dialyzed against 2 buffer changes—TBS pH 8.0 containing 5 mM DTT, 2 mM EDTA and 2% sucrose—each at least 20 times of the volume. The modified protein was distributed into aliquots, frozen on dry ice and stored at −80° C. The biotinylated RORγ-LBD was subjected to mass spectrometric analysis to reveal the extent of modification by the biotinylation reagent.
Biotinylated SRC1(2) solution was prepared by adding an appropriate amount of biotinylated SRC1(2) from the 100 uM stock solution to a buffer containing 10 mM of freshly added DTT from solid to give a final concentration of 40 nM. An appropriate amount of Europium labeled Streptavidin was then added to the biotinylated SRC1(2) solution in a tube to give a final concentration of 10 nM. The tube was inverted gently and incubated for 15 minutes at room temperature. Twenty-fold excess biotin from the 10 mM stock solution was added and the tube was inverted gently and incubated for 10 minutes at room temperature.
Biotinylated RORγ-LBD solution was prepared by adding an appropriate amount of biotinylated RORγ-LBD from the stock solution to a buffer containing 10 mM of freshly added DTT from solid to give a final concentration of 40 nM. An appropriate amount of APC labeled Streptavidin was then added to the biotinylated RORγ-LBD solution in a tube to give a final concentration of 20 nM. The tube was inverted gently and incubated for 15 minutes at room temperature. Twenty-fold excess biotin from the 10 mM stock solution was then added and the tube was inverted gently and incubated for 10 minutes at room temperature.
The reaction mixtures were incubated for 5 minutes. […] The plates were incubated for 1 hour and then read on ViewLux in Lance mode for EU/APC.

CCc1ccc(N(CC(C)C)S(=O)(=O)c2ccc([C@@H](O)CN3CCOCC3)c(CO)c2)cc1 [Example E126, N-(4-ethylphenyl)-4-(1-hydroxy-2-morpholinoethyl)-3-(hydroxymethyl)-N-isobutylbenzenesulfonamide]
IC50: 63.1 nM
